The term IC50 denotes the concentration needed to halve the response being measured. A high value points to lower potency.

For one assay, the target named is T1, Thromboxane A2 receptor (Rattus norvegicus, UniProt P34978).
T1 sequence (P34978 whole entry): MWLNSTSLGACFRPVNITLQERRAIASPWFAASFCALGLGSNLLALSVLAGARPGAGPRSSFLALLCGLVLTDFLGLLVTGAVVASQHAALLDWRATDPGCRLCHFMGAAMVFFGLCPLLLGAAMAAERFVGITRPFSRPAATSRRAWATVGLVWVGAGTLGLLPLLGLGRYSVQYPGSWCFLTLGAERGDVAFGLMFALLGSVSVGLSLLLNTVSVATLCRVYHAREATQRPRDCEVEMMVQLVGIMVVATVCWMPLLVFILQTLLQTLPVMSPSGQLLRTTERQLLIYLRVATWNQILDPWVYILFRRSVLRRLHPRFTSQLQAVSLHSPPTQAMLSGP
The assay can be described thus: Compound was tested for TXA2 receptor antagonism by measuring its ability to inhibit contraction of rat aorta induced by the stable TXA2 agonist U-46,619 at 1 umol. It is filed as functional, tissue-based. Conditions: read-out: pA2 (converted).

In another assay the target is T2, Thromboxane-A synthase (Homo sapiens, UniProt P24557).
T2 sequence (P24557 whole entry): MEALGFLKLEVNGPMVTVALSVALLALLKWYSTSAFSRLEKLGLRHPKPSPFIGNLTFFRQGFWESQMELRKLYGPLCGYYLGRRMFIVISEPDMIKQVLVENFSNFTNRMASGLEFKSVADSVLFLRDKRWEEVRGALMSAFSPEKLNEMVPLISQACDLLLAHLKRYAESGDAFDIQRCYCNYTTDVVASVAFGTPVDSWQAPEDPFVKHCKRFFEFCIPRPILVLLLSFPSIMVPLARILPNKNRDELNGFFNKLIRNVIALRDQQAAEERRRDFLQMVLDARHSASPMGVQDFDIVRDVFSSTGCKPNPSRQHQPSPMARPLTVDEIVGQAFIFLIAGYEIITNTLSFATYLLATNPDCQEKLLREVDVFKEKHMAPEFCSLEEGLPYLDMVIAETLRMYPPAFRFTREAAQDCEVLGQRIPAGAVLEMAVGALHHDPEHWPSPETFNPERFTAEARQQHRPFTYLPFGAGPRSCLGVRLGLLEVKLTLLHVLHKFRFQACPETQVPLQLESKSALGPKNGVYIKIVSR
The assay can be described thus: Inhibitory activity against human platelet microsomal TXA2 synthase.

Turning to `Cc1c(Cn2ccnc2)c2ccccc2n1CCC(=O)O` [DAZMEGREL], the Kb at Thromboxane A2 receptor was greater than 1000 nM.
On the same count and under the same terms, the result for `O=C(O)CCn1cc(Cc2ccc(F)cc2)c2cc(NS(=O)(=O)c3ccc(Cl)cc3)ccc21` reads 0.234 nM.
Take `O=C(O)CCn1cc(Cc2cccnc2)c2cc(NS(=O)(=O)c3ccc(F)cc3)ccc21`: the Kb at Thromboxane A2 receptor was 1.41 nM. The same compound yielded an IC50 at Thromboxane-A synthase of 48 nM.
The matching figures for `O=C(O)CCn1cc(Cn2ccnc2)c2cc(NS(=O)(=O)c3ccc(F)cc3)ccc21`: 6.31 nM and 34 nM.
For `O=C(O)CCn1cc(Cc2ccc(F)cc2)c2cc(NS(=O)(=O)c3ccc(F)cc3)ccc21`, on Thromboxane A2 receptor, the Kb was 0.479 nM.
Same read-out and setting: next, `O=C(O)CCn1ccc2cc(NS(=O)(=O)c3ccc(Cl)cc3)ccc21`: 2.75 nM; `O=C(O)CCCc1ccc(NS(=O)(=O)c2ccc(Cl)cc2)cc1`: 100 nM; `O=C(O)CCn1cc(Cc2ccc(F)cc2)c2cc(NS(=O)(=O)c3ccccc3)ccc21`: 0.676 nM.
On the same count and under the same terms, next, `O=C(O)CCn1ccc2cc(NS(=O)(=O)c3ccc(F)cc3)ccc21`: 3.72 nM.
On to `COc1ccc(S(=O)(=O)Nc2ccc3c(c2)c(Cc2ccc(F)cc2)cn3CCC(=O)O)cc1`, for which, on Thromboxane A2 receptor, the Kb is 0.174 nM.
With `Cc1ccc(S(=O)(=O)Nc2ccc3c(c2)c(Cc2ccc(F)cc2)cn3CCC(=O)O)cc1`, on Thromboxane A2 receptor, the Kb is 0.269 nM.
Consider `Cc1c(Cn2ccnc2)c2cc(NS(=O)(=O)c3ccc(F)cc3)ccc2n1CCC(=O)O`, for which the Kb on Thromboxane A2 receptor was 3800 nM. Moreover, the IC50 against Thromboxane-A synthase was 19 nM.

The values above are taken from ChEMBL document CHEMBL1129124, “Thromboxane modulating agents. 2. Thromboxane receptor antagonists derived from the thromboxane synthase inhibitor dazmegrel” (Bioorg Med Chem Lett, 1996).
